Measurements: ChEMBL document CHEMBL3286299, “Synthesis and in vitro evaluation of 4-trichloromethylpyrrolo[1,2-a]quinoxalines as new antiplasmodial agents” (Eur J Med Chem, 2014)

Columns and labels:
Plasmodium falciparum = test: Antiplasmodial activity against chloroquine-, pyrimethamine- and proguanil-resistant Plasmodium falciparum K1 infected in human erythrocytes after 72 hrs by SYBR Green I fluorescence-based method; assay type: functional, organism-based; conditions: K1, 72 h
[1] = Cytotoxicity against human HepG2 cells after 72 hrs by MTT assay; assay type: cell-based
[2] = Selectivity index, ratio of CC50 for human HepG2 cells to IC50 for chloroquine-, pyrimethamine- and proguanil-resistant Plasmodium falciparum K1 infected in human erythrocytes; assay type: functional
[3] = Selectivity index, ratio of CC50 for human HepG2 cells to IC50 for Plasmodium falciparum W2; assay type: functional

For `ClC(Cl)(Cl)c1cnc2ccccc2n1`, the IC50 (Plasmodium falciparum) was 1.5 µM, the CC50 at 72 h [1] was 3.1 µM and the “Ratio CC50/IC50” value [2] was 2.1.
In the case of `COc1ccc2c(c1)nc(C(Cl)(Cl)Cl)c1cccn12`, the IC50 (Plasmodium falciparum) is reported as 4.2 µM, the CC50 at 72 h [1] is reported as 35 µM and the “Ratio CC50/IC50” value [2] is reported as 8.3.
With `ClC(Cl)(Cl)c1nc2ccccc2n2cccc12` the IC50 (Plasmodium falciparum) was 1.5 µM, the CC50 at 72 h [1] was 41.2 µM and the “Ratio CC50/IC50” value [2] was 27.5.
In the case of `Cc1cnc2ccccc2n1`, the IC50 (Plasmodium falciparum) is reported as > 50 µM and the CC50 at 72 h [1] is reported as > 500 µM.
In the case of `Cc1ncc2ccccc2n1`, the IC50 (Plasmodium falciparum) is reported as > 50 µM, the CC50 at 72 h [1] is reported as 350 µM and the “Ratio CC50/IC50” value [2] is reported as <7.
For `ClC(Cl)c1cnc2ccccc2n1`, the IC50 (Plasmodium falciparum) was 12.8 µM, the CC50 at 72 h [1] was 19.3 µM and the “Ratio CC50/IC50” value [2] was 1.5.
With `ClC(Cl)(Cl)c1ncnc2ccccc12` the IC50 (Plasmodium falciparum) was > 50 µM and the CC50 at 72 h [1] was > 500 µM.
For `Clc1ccc2c(c1)nc(C(Cl)(Cl)Cl)c1cccn12`, the IC50 (Plasmodium falciparum) was 1.6 µM, the CC50 at 72 h [1] was 9.8 µM and the “Ratio CC50/IC50” value [2] was 6.1.
For `ClC(Cl)(Cl)c1nc2ccccc2nc1-c1ccccc1`, the IC50 (Plasmodium falciparum) was 0.2 µM, the CC50 at 72 h [1] was 3.5 µM and the “Ratio CC50/IC50” value [2] was 17.5.
For `ClC(Cl)(Cl)c1nc2cc(I)ccc2n2cccc12`, the IC50 (Plasmodium falciparum) was 1.2 µM, the CC50 at 72 h [1] was 6.6 µM and the “Ratio CC50/IC50” value [2] was 5.5.
For `Cc1ccc2c(c1)nc(C)c1cccn12`, the IC50 (Plasmodium falciparum) was > 50 µM, the CC50 at 72 h [1] was 57 µM and the “Ratio CC50/IC50” value [2] was <4.7.
In the case of `FC(F)(F)c1cnc2ccccc2n1`, the IC50 (Plasmodium falciparum) is reported as > 50 µM and the CC50 at 72 h [1] is reported as > 500 µM.
In the case of `ClC(Cl)(Cl)c1ncc2ccccc2n1`, the IC50 (Plasmodium falciparum) is reported as 17.6 µM, the CC50 at 72 h [1] is reported as 61 µM and the “Ratio CC50/IC50” value [2] is reported as 3.5.
In the case of `c1ccc2nccnc2c1` [QUINOXALINE], the IC50 (Plasmodium falciparum) is reported as > 50 µM and the CC50 at 72 h [1] is reported as > 500 µM.
In the case of `FC(F)(F)c1nc2ccccc2n2cccc12`, the IC50 (Plasmodium falciparum) is reported as > 50 µM, the CC50 at 72 h [1] is reported as 160 µM and the “Ratio CC50/IC50” value [2] is reported as <3.2.
With `ClC(Cl)(Cl)c1nccc2ccccc12` the IC50 (Plasmodium falciparum) was 8 µM, the CC50 at 72 h [1] was 180 µM and the “Ratio CC50/IC50” value [2] was 22.5.
For `O=C(O)c1ccc2c(c1)nc(C(Cl)(Cl)Cl)c1cccn12`, the IC50 (Plasmodium falciparum) was 22 µM, the CC50 at 72 h [1] was 106 µM and the “Ratio CC50/IC50” value [2] was <10.6.
With `Cc1nc2ccccc2n2cccc12` the IC50 (Plasmodium falciparum) was > 50 µM, the CC50 at 72 h [1] was 120 µM and the “Ratio CC50/IC50” value [2] was <2.4.
In the case of `Cc1nccc2ccccc12`, the IC50 (Plasmodium falciparum) is reported as > 50 µM, the CC50 at 72 h [1] is reported as 179 µM and the “Ratio CC50/IC50” value [2] is reported as <3.6.
For `ClC(Cl)(Cl)c1nc(-c2ccccc2)c2ccccc2n1`, the CC50 at 72 h [1] was > 125 µM and the “Ratio CC50/IC50” value [3] was >15.6.
With `Fc1ccc2c(c1)nc(C(Cl)(Cl)Cl)c1cccn12` the IC50 (Plasmodium falciparum) was 1.7 µM, the CC50 at 72 h [1] was > 15 µM and the “Ratio CC50/IC50” value [2] was >8.8.
In the case of `Cc1ccc2ccccc2n1` [QUINALDINE], the IC50 (Plasmodium falciparum) is reported as > 50 µM and the CC50 at 72 h [1] is reported as > 500 µM.
With `N#Cc1ccc2c(c1)nc(C(Cl)(Cl)Cl)c1cccn12` the IC50 (Plasmodium falciparum) was 1.5 µM, the CC50 at 72 h [1] was 17 µM and the “Ratio CC50/IC50” value [2] was 11.3.
In the case of `Cc1ccc2c(c1)nc(C(Cl)(Cl)Cl)c1cccn12`, the IC50 (Plasmodium falciparum) is reported as 2.4 µM, the CC50 at 72 h [1] is reported as 53 µM and the “Ratio CC50/IC50” value [2] is reported as 22.1.
For `N/C(=N/O)c1ccc2c(c1)nc(C(Cl)(Cl)Cl)c1cccn12`, the IC50 (Plasmodium falciparum) was 1.75 µM, the CC50 at 72 h [1] was > 15 µM and the “Ratio CC50/IC50” value [2] was >8.6.
With `C[C@H]1c2cccc(O)c2C(=O)C2=C(O)[C@]3(O)C(=O)C(C(N)=O)=C(O)[C@@H](N(C)C)[C@@H]3[C@@H](O)[C@@H]21.O` [DOXYCYCLINE] the IC50 (Plasmodium falciparum) was 6 µM and the “Ratio CC50/IC50” value [2] was 3.3.
In the case of `Cc1nc2cc(C#N)ccc2n2cccc12`, the IC50 (Plasmodium falciparum) is reported as > 50 µM and the CC50 at 72 h [1] is reported as > 31.5 µM.
